Measurements: EP0173527A2, “Insulin-selective somatostatin analogs” (THE SALK INSTITUTE FOR BIOLOGICAL STUDIES, priority 1984, dated 1986)
Entries after “also recorded” stand apart in the source; their conditions may differ. Positions of bridges follow the written chain, without caps; N, C: chain ends.

Tests used:
[1] = synthetic SS-28; Pradayrol et al., FEBS Letters 109, 1980; cited from earlier work
[2] = tested on: cells of rat pituitary glands; test: in vitro radioimmunoassay of growth hormone release from cultured rat pituitary cells, side-by-side comparison with somatostatin-14; type: cell-based; conditions: for biological activity / potency: comparative in vitro testing, compared with aSS-28
Method: To determine the effectiveness of the peptides to inhibit the release of […], in vitro radioimmunoassays are carried out using aSS-28, [Lys^23]-aSS-28 and aSS(15-28) in side-by-side comparison with equimolar concentrations of somotostatin-14 having a known effectiveness to inhibit the release of growth hormone induced by the application of isobutyl methyl xanthine to pituitary cells. Cultures are used which include cells of rat pituitary glands removed some four to five days previously in a system that minimizes enzymatic degradation, generally following the procedure set forth in Vale et al., Methods in Enzymology, Hormones and Cyclic Nucleotides (1975) Vol. 37, p. 82. Both cultures of a defined standard medium and cultures which are considered optimal for the secretion of growth hormone, as a result of having additions of either 2% or 10% of serum from a foetal calf, are used for the comparative testing.

[3] = tested on: secretion of glucagon and insulin; test: in vivo inhibition of insulin (and glucagon) secretion, potency relative to somatostatin-14; set-up: species or system rats; conditions: basal and stimulated insulin secretion in mammals, including humans and dogs; compared with somatostatin-14 and somatostatin-28
Method: In vivo experiments are carried out with aSS-28, using the procedure described in Brown et al., Metabolism (1976) Vol. 25, pp. 1501-1503, to determine the potency, relative to somatostatin-14, to inhibit the secretion of glucagon and insulin stimulated by the administration of arginine to groups of rats.

Substance: H-Ser-Ala-Asn-Ser-Asn-Pro-Ala-Met-Ala-Pro-Arg-Glu-Arg-Lys-Ala-Gly-Cys-Lys-Asn-Phe-Phe-Trp-Lys-Thr-Phe-Thr-Ser-Cys-OH [SS-28]
- potency when administered in vivo [1]: increased potency

Substance: H-Ser-Val-Asp-Ser-Thr-Asn-Asn-Leu-Pro-Pro-Arg-Glu-Arg-Lys-Ala-Gly-Cys-Lys- Asn-Phe-Tyr-Trp-Lys-Gly-Phe-Thr-Ser-Cys-OH (H-SVDSTNNLPPRERKAGCKNFYWKGFTSC-OH; disulfide 17-28 (inferred); ends not checked) [[Lys 23]-aSS-28]
- biological activity / potency [2]: similarly biologically active although having somewhat lower potencies

Substance: H-Ala-Gly-Cys-Lys-Asn-Phe-Tyr-Trp-Hyl-Gly-Phe-Thr-Ser-Cys-OH [aSS(15-28)]
- biological activity / potency [2]: similarly biologically active although having somewhat lower potencies

Substance: H-Ser-Val-Asp-Ser-Thr-Asn-Asn-Leu-Pro-Pro-Arg-Glu-Arg-Lys-Ala-Gly-Cys-Lys-Asn-Phe-Tyr-Trp-Hyl-Gly-Phe-Thr-Ser-Cys-OH [aSS-28]
- insulin-selectivity ([2]; inferred from GH inhibition compared with SS-14): likely insulin-selective; also recorded: extreme insulin-selectivity
- inhibition of GH ([2]; release of growth hormone induced by isobutyl methyl xanthine, compared with equimolar SS-14): substantially less than SS-14
- potency to inhibit insulin secretion [3]: increased potency; also recorded: more potent than either somatostatin-14 or somatostatin-28
